Results as given in patent publication US12152031B2, “Biodefense agents” (priority 2018, dated 2024).
Converted amounts (≈) assume the structure as drawn.

Columns and labels:
Test in all cases: microbe, parasite or virus in culture
Type in all cases: cell-based
[1] = tested on: Bacillus anthracis; conditions: for MIC: read-out: MIC range
[2] = tested on: Yersinia pestis; conditions: for MIC: read-out: MIC range
[3] = tested on: Francisella tularensis; conditions: for MIC: read-out: MIC range
[4] = tested on: Burkholderia mallei; conditions: for MIC: read-out: MIC range
[5] = tested on: Burkholderia pseudomallei; conditions: Burkholderia pseudomallei; for MIC: read-out: MIC range

SMILES | MIC50 [1] [µg/mL] | MIC90 [1] [µg/mL] | MIC [1] [µg/mL] | MIC50 [2] [µg/mL] | MIC90 [2] [µg/mL] | MIC [2] [µg/mL] | MIC50 [3] [µg/mL] | MIC90 [3] [µg/mL] | MIC [3] [µg/mL] | MIC50 [4] [µg/mL] | MIC90 [4] [µg/mL] | MIC [4] [µg/mL] | MIC50 [5] [µg/mL] | MIC90 [5] [µg/mL] | MIC [5] [µg/mL]
C[C@H](N)CCCc1cc(Cl)c(F)c(-c2cc3cn(-c4ccc([C@@H]5CCC[C@@H](CCSC(=N)N)N5)cc4)c(=O)nc3[nH]2)c1 [RX-D4] | 0.06 (≈ 0.0983 µM) | 0.12 (≈ 0.197 µM) | 0.015 to 0.12 (≈ 0.0246 to 0.197 µM) | 0.12 (≈ 0.197 µM) | 0.25 (≈ 0.41 µM) | 0.004 to 0.5 (≈ 0.00656 to 0.819 µM) | 0.03 (≈ 0.0492 µM) | 0.06 (≈ 0.0983 µM) | 0.004 to 0.5 (≈ 0.00656 to 0.819 µM) | 0.12 (≈ 0.197 µM) | 0.12 (≈ 0.197 µM) | 0.03 to 0.12 (≈ 0.0492 to 0.197 µM) | 1 (≈ 1.64 µM) | 4 (≈ 6.56 µM) | 0.25 to 8 (≈ 0.41 to 13.1 µM)
CC(=N)NCC[C@@H]1CCC[C@@H](c2ccc(-n3cc4cc(-c5cc(CCC[C@H](C)N)cc(Cl)c5F)[nH]c4nc3=O)cc2)N1CCCO [RX-D2] | 0.06 (≈ 0.0923 µM) | 0.12 (≈ 0.185 µM) | 0.03 to 0.12 (≈ 0.0461 to 0.185 µM) | 0.25 (≈ 0.384 µM) | 1 (≈ 1.54 µM) | 0.03 to 1 (≈ 0.0461 to 1.54 µM) | 0.12 (≈ 0.185 µM) | 0.25 (≈ 0.384 µM) | 0.015 to 1 (≈ 0.0231 to 1.54 µM) | 0.12 (≈ 0.185 µM) | 0.25 (≈ 0.384 µM) | 0.06 to 0.5 (≈ 0.0923 to 0.769 µM) | > 8 | > 8 | 
C[C@H](N)CCCc1cc(Cl)c(F)c(-c2cc3cn(-c4ccc([C@@H]5CCC[C@@H](CCNC(=N)CN)N5)cc4)c(=O)nc3[nH]2)c1 [RX-D6] | 0.12 (≈ 0.198 µM) | 0.25 (≈ 0.412 µM) | 0.06 to 0.25 (≈ 0.0988 to 0.412 µM) | 0.5 (≈ 0.823 µM) | 1 (≈ 1.65 µM) | 0.015 to 1 (≈ 0.0247 to 1.65 µM) | 0.06 (≈ 0.0988 µM) | 0.25 (≈ 0.412 µM) | 0.03 to 0.5 (≈ 0.0494 to 0.823 µM) | 0.12 (≈ 0.198 µM) | 0.25 (≈ 0.412 µM) | 0.12 to 0.25 (≈ 0.198 to 0.412 µM) | > 8 | > 8 | 
C[C@H](N)CCCc1cc(Cl)c(F)c(-c2cc3cn(-c4ccc([C@@H]5CCC[C@@H](CCSC(=N)N)N5)c(F)c4)c(=O)nc3[nH]2)c1 [RX-D11] | 0.12 (≈ 0.191 µM) | 0.25 (≈ 0.398 µM) | 0.008 to 0.5 (≈ 0.0127 to 0.796 µM) | 0.12 (≈ 0.191 µM) | 0.25 (≈ 0.398 µM) | 0.004 to 0.25 (≈ 0.00637 to 0.398 µM) | 0.06 (≈ 0.0955 µM) | 0.12 (≈ 0.191 µM) | 0.008 to 1 (≈ 0.0127 to 1.59 µM) | 0.06 (≈ 0.0955 µM) | 0.12 (≈ 0.191 µM) | 0.03 to 0.25 (≈ 0.0478 to 0.398 µM) | 1 (≈ 1.59 µM) | 2 (≈ 3.18 µM) | 0.25 to 8 (≈ 0.398 to 12.7 µM)
CSc1cc(-n2cc3cc(-c4cc(CCC[C@@H](N)C5CC5)cc(Cl)c4F)[nH]c3nc2=O)ccc1[C@@H]1CCC[C@@H](CCNC(C)=N)N1 [RX-D1] | 0.06 (≈ 0.0903 µM) | 0.06 (≈ 0.0903 µM) | 0.008 to 0.12 (≈ 0.012 to 0.181 µM) | 0.12 (≈ 0.181 µM) | 0.25 (≈ 0.376 µM) | 0.008 to 0.25 (≈ 0.012 to 0.376 µM) | 0.12 (≈ 0.181 µM) | 0.25 (≈ 0.376 µM) | 0.06 to 0.5 (≈ 0.0903 to 0.753 µM) | 0.12 (≈ 0.181 µM) | 0.12 (≈ 0.181 µM) | 0.06 to 0.25 (≈ 0.0903 to 0.376 µM) | 1 (≈ 1.51 µM) | 4 (≈ 6.02 µM) | 0.5 to 4 (≈ 0.753 to 6.02 µM)
CCCN1[C@H](CCNC(C)=N)CCC[C@H]1c1ccc(-n2cc3cc(-c4cc(CCC[C@H](C)N)cc(Cl)c4F)[nH]c3nc2=O)cc1 [RX-D5] | 0.06 (≈ 0.0946 µM) | 0.06 (≈ 0.0946 µM) | 0.015 to 0.12 (≈ 0.0237 to 0.189 µM) | 0.12 (≈ 0.189 µM) | 0.25 (≈ 0.394 µM) | 0.03 to 0.5 (≈ 0.0473 to 0.788 µM) | 0.06 (≈ 0.0946 µM) | 0.12 (≈ 0.189 µM) | 0.004 to 1 (≈ 0.00631 to 1.58 µM) | 0.06 (≈ 0.0946 µM) | 0.12 (≈ 0.189 µM) | 0.03 to 0.12 (≈ 0.0473 to 0.189 µM) | 4 (≈ 6.31 µM) | 8 (≈ 12.6 µM) | 
C[C@H](N)CCCc1cc(Cl)c(F)c(-c2cc3cn(-c4ccc([C@H]5CC[C@H](CCNC(=N)N)N5)cc4)c(=O)nc3[nH]2)c1 [RX-D13] | 0.06 (≈ 0.104 µM) | 0.06 (≈ 0.104 µM) | 0.008 to 0.12 (≈ 0.0138 to 0.207 µM) | 0.06 (≈ 0.104 µM) | 0.25 (≈ 0.432 µM) | 0.03 to 0.25 (≈ 0.0518 to 0.432 µM) | 0.015 (≈ 0.0259 µM) | 0.06 (≈ 0.104 µM) | 0.004 to 0.12 (≈ 0.00691 to 0.207 µM) | 0.06 (≈ 0.104 µM) | 0.12 (≈ 0.207 µM) | 0.008 to 0.12 (≈ 0.0138 to 0.207 µM) | 1 (≈ 1.73 µM) | 4 (≈ 6.91 µM) | 0.25 to 8 (≈ 0.432 to 13.8 µM)
CC[C@H]1OC(=O)[C@H](C)[C@@H](O[C@H]2C[C@@](C)(OC)[C@@H](O)[C@H](C)O2)[C@H](C)[C@@H](O[C@@H]2O[C@H](C)C[C@H](N(C)C)[C@H]2O)[C@](C)(O)C[C@@H](C)CN(C)[C@H](C)[C@@H](O)[C@]1(C)O [Azithromycin, azithromycin, reference compound] |  |  |  |  |  |  |  |  |  | 0.5 (≈ 0.668 µM) | 1 (≈ 1.34 µM) | 0.06 to 1 (≈ 0.0801 to 1.34 µM) |  |  | 
